In patent US20240270809A1, “ORAL GLP RECEPTOR AGONISTS” (priority 2020, published 2024):
Positions of bridges follow the written chain, without caps; N, C: chain ends. Non-standard residues stand in square brackets, D forms with d. Residues, ends and D or L forms follow the SMILES beside them. *: point of attachment. Malonyl(2,2-Me2,histaminyl) = CC(C)(C(=O)NCCc1cnc[nH]1)C(=O)*; Ala(1H-tetrazol-5-yl) = N[C@@H](Cc1nnn[nH]1)C(=O)O; Nle = CCCC[C@H](N)C(=O)O; Aib = CC(C)(N)C(=O)O

Columns and labels:
[1] = Stability of peptides in Fasted-State Simulated Intestinal Fluid (FaSSIF); format: in vitro ADME; settings: FaSSIF with 10 mg/ml pancreatin; FaSSIF pH 6.5 with 10 mg/ml pancreatin, 37° C., t = 15 mins
[2] = target: T1, human GLP1 receptor (Homo sapiens, UniProt P43220); test: cAMP accumulation assay, functional agonism of human GLP1 receptor; format: cell-based; settings: HEK cells infected with human GLP1 receptor BacMam virus, HTRF cAMP; for Emax: HEK293, read-out: Human GLP-1R agonist cAMP Emax; for EC50: read-out: Human GLP-1R agonist cAMP pEC50 (converted)
T1 construct: expressed in transfected cells; host or cells: HEK cells, BacMam virus transduction
T1 sequence (P43220 24-463): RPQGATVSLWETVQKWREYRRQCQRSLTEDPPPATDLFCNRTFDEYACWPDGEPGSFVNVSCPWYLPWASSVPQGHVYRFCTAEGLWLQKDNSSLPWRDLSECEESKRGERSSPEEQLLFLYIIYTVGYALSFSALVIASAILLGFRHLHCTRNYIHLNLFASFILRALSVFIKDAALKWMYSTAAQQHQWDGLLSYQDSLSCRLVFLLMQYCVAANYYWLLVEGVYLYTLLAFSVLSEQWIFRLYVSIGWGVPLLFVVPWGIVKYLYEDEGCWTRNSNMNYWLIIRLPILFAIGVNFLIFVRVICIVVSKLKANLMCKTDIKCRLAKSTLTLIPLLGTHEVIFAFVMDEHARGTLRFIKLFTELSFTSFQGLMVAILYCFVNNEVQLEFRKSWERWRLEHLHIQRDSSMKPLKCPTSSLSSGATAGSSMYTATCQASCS
Method in brief: (§1)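 Agonist-driven cAMP production was quantified by homogeneous time-resolved fluorescence. Receptor expression in HEK cells came from a 24-hour BacMam infection, and cells were frozen ahead of the assay. Incubation lasted 45 min at 37° C in HBSS supplemented with 0.5 mM IBMX.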

[3] = target: T2, mouse GLP2 receptor (Mus musculus, UniProt Q5IXF8); test: cAMP accumulation assay, functional agonism of mouse GLP2 receptor; format: cell-based; settings: HEK cells transiently transfected with mouse GLP2 receptor, HTRF cAMP; for Emax: HEK293, read-out: Mouse GLP-2R agonist cAMP Emax; for EC50: read-out: Mouse GLP-2R agonist cAMP pEC50 (converted)
T2 construct: expressed in transfected cells; host or cells: HEK cells, transient transfection with GeneJuice
T2 sequence (Q5IXF8 1-512): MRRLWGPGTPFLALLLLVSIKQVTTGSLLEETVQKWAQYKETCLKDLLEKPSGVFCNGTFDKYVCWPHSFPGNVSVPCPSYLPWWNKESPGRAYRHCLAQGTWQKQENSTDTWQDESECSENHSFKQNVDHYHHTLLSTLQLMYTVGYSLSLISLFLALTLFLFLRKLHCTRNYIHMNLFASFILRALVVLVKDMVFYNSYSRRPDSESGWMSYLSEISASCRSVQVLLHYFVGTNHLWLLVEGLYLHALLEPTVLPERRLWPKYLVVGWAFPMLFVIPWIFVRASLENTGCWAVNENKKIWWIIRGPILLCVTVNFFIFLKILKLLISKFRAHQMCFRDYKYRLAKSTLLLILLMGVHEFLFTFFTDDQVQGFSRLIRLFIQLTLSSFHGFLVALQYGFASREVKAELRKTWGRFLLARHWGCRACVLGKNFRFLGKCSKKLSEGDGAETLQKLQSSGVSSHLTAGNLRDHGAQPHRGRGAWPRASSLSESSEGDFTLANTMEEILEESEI
Method in brief: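 pEC50 values come from four-parameter fits of HTRF cAMP signal, read after lysis and 1 h RT incubation. Compounds were incubated 45 min at 37 °C with previously frozen, transiently transfected HEK cells (8000/well) in HBSS containing 0.5 mM IBMX.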

[4] = target: T3, mouse GLP1 receptor (Mus musculus, UniProt O35659); test: cAMP accumulation assay, functional agonism of mouse GLP1 receptor; format: cell-based; settings: HEK cells transiently transfected with mouse GLP1 receptor, HTRF cAMP; for Emax: HEK293, read-out: Mouse GLP-1R agonist cAMP Emax; for EC50: read-out: Mouse GLP-1R agonist cAMP pEC50 (converted)
T3 construct: expressed in transfected cells; host or cells: HEK cells, transient transfection with GeneJuice
T3 sequence (O35659 22-463): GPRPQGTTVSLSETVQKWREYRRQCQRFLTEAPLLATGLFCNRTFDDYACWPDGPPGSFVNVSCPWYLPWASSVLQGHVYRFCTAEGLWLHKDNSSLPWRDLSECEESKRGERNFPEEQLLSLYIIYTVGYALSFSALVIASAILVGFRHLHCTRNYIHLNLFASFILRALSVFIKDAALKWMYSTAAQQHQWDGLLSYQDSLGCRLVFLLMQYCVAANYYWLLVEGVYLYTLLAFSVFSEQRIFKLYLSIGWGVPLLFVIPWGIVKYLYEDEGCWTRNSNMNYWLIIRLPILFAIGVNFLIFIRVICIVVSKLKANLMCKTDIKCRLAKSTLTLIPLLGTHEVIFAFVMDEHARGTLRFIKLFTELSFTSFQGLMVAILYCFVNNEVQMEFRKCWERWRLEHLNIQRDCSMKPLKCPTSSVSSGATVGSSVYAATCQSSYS
Procedure: CAMP production upon agonist stimulation of mouse GLP2 or GLP1 receptors was assessed utilizing HiRange cAMP kit (Cisbio). In brief, HEK cells were transiently transfected for 24 hours with cDNA using GeneJuice Transfection reagent (EMD Millipore) and frozen at −80° C. for later use in the assay. […] Cells were prepared in the assay buffer (HBSS (Lonza) supplemented with 0.5 mM IBMX (Tocris)). After 45 min incubation at 37° C., the reaction was stopped by addition of the HTRF detection reagents in the lysis buffer provided in the kit. Following 1-hour incubation at RT, plates were read on Pherastar FS (BMG Labtech, Inc.) using standard HTRF settings. Dotmatics Studies software was used for calculation of pEC50 values by fitting data to a four-parameter concentration response curve.

[5] = target: T4, human GLP2 receptor (Homo sapiens, UniProt O95838); test: cAMP accumulation assay, functional agonism of human GLP2 receptor; format: cell-based; settings: HEK cells infected with human GLP2 receptor BacMam virus, HTRF cAMP; for Emax: HEK293, read-out: Human GLP-2R agonist cAMP Emax; for EC50: read-out: Human GLP-2R agonist cAMP pEC50 (converted)
T4 construct: expressed in transfected cells; host or cells: HEK cells, BacMam virus transduction
T4 sequence (O95838 1-553): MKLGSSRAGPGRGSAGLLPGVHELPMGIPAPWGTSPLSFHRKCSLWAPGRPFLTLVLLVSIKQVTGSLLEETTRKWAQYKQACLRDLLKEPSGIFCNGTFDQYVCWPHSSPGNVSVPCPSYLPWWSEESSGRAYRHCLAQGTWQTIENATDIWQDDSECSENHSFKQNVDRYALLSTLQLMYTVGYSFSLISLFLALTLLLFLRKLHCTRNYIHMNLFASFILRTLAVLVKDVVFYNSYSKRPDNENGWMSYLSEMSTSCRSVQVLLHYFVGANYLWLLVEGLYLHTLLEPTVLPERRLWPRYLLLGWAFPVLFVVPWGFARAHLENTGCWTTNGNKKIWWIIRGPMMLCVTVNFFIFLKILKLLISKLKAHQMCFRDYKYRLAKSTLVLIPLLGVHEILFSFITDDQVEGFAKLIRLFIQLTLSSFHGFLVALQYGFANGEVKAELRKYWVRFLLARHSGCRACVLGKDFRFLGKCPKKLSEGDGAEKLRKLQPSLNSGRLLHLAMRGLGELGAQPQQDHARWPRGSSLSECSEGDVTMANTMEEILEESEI
Method in brief: as §1

SMILES | remaining at 0.25 h [1] [%] | Emax [2] [%] | EC50 [2] [nM] | Emax [3] [%] | EC50 [3] [pM] | Emax [4] [%] | EC50 [4] [nM] | Emax [5] [%] | EC50 [5] [pM]
CCCC[C@H](NC(=O)[C@H](CCC(=O)O)NC(=O)[C@H](CC(=O)O)NC(=O)[C@H](CO)NC(=O)[C@H](Cc1ccccc1)NC(=O)[C@H](CO)NC(=O)CNC(=O)[C@H](CC(=O)O)NC(=O)C(C)(C)NC(=O)[C@@H](N)Cc1c[nH]cn1)C(=O)N[C@H](Cc1ccccc1)C(=O)N[C@H]1CCCCNC(=O)C[C@@H](C(=O)N[C@@H](CCCCN)C(=O)N[C@@H](C)C(=O)N[C@@H](C)C(=O)N[C@@H](CCCCN)C(=O)N[C@@H](CC(=O)O)C(=O)N[C@@H](Cc2ccccc2)C(=O)N[C@H](C(=O)N[C@@H](CC(N)=O)C(=O)N[C@@H](Cc2c[nH]c3ccccc23)C(=O)N[C@@H](CC(C)C)C(=O)N[C@H](C(=O)N[C@@H](CCC(N)=O)C(=O)N[C@H](C(=O)N[C@@H](CCCCN)C(=O)N[C@H](C(=O)N[C@H](C(=O)N[C@@H](CC(=O)O)C(N)=O)[C@@H](C)O)[C@@H](C)CC)[C@@H](C)O)[C@@H](C)CC)[C@@H](C)CC)NC(=O)[C@H](CC(=O)O)NC(=O)[C@H](CC(C)C)NC(=O)[C@H]([C@@H](C)CC)NC1=O [Example 88] (H-H[Aib]DGSFSDE[Nle][dF]KILDDKAAKDFINWLIQTKITD-NH2; lactam 12-16) | 0.5 | 99.2 | 1.26 | 98.7 | 6.31 | 96.4 | 0.1 | 102 | 3.16
CCCC[C@H](NC(=O)[C@H](CCC(=O)O)NC(=O)[C@H](CC(=O)O)NC(=O)[C@H](CO)NC(=O)[C@H](Cc1ccccc1)NC(=O)[C@H](CO)NC(=O)CNC(=O)[C@H](CC(=O)O)NC(=O)C(C)(C)NC(=O)[C@@H](N)Cc1c[nH]cn1)C(=O)N[C@H](Cc1ccccc1)C(=O)N[C@H]1CCC(=O)NCCCC[C@@H](C(=O)N[C@@H](CCCCN)C(=O)N[C@@H](C)C(=O)N[C@@H](C)C(=O)N[C@@H](CCCCN)C(=O)N[C@@H](CC(=O)O)C(=O)N[C@@H](Cc2ccccc2)C(=O)N[C@H](C(=O)N[C@@H](CC(N)=O)C(=O)N[C@@H](Cc2c[nH]c3ccccc23)C(=O)N[C@@H](CC(C)C)C(=O)N[C@H](C(=O)N[C@@H](CCC(N)=O)C(=O)N[C@H](C(=O)N[C@@H](CCCCN)C(=O)N[C@H](C(=O)N[C@H](C(=O)N[C@@H](CC(=O)O)C(N)=O)[C@@H](C)O)[C@@H](C)CC)[C@@H](C)O)[C@@H](C)CC)[C@@H](C)CC)NC(=O)[C@H](CC(=O)O)NC(=O)[C@H](CC(C)C)NC(=O)[C@H]([C@@H](C)CC)NC1=O [Example 87] (H-H[Aib]DGSFSDE[Nle][dF]EILDKKAAKDFINWLIQTKITD-NH2; lactam 12-16 (inferred); C-terminus assumed) | 1.7 | 98.7 | 2.51 | 99.2 | 6.31 | 91.4 | 0.631 | 102 | 2.51
CCCC[C@H](NC(=O)[C@H](CCC(=O)O)NC(=O)[C@H](CC(=O)O)NC(=O)[C@H](CO)NC(=O)[C@H](Cc1ccccc1)NC(=O)[C@H](CO)NC(=O)CNC(=O)[C@H](CC(=O)O)NC(=O)C(C)(C)NC(=O)[C@@H](N)Cc1c[nH]cn1)C(=O)N[C@H](Cc1ccccc1)C(=O)N[C@H](C(=O)N[C@H](C(=O)N[C@@H](CC(C)C)C(=O)N[C@@H](CC(=O)O)C(=O)N[C@H]1CCCCNC(=O)CC[C@@H](C(=O)N[C@@H](CC(=O)O)C(=O)N[C@@H](Cc2ccccc2)C(=O)N[C@H](C(=O)N[C@@H](CC(N)=O)C(=O)N[C@@H](Cc2c[nH]c3ccccc23)C(=O)N[C@@H](CC(C)C)C(=O)N[C@H](C(=O)N[C@@H](CCC(N)=O)C(=O)N[C@H]2CCCCNC(=O)CC[C@@H](C(N)=O)NC(=O)[C@H]([C@@H](C)O)NC(=O)[C@H]([C@@H](C)CC)NC(=O)[C@H](CCCCN)NC2=O)[C@@H](C)CC)[C@@H](C)CC)NC(=O)[C@H](C)NC(=O)[C@H](C)NC(=O)[C@H](CCCCN)NC1=O)[C@@H](C)CC)[C@@H](C)O [Example 113] (H-H[Aib]DGSFSDE[Nle][dF]TILDKKAAEDFINWLIQKKITE-NH2; lactam 16-20, 29-33; C-terminus assumed) | 3.4 | 97 | 2 | 99.2 | 200 | 96.3 | 1.58 | 101 | 3.16
CCCC[C@H](NC(=O)[C@H](CCC(=O)O)NC(=O)[C@H](CC(=O)O)NC(=O)[C@H](CO)NC(=O)[C@H](Cc1ccccc1)NC(=O)[C@H](CO)NC(=O)CNC(=O)[C@H](Cc1nn[nH]n1)NC(=O)C(C)(C)C(=O)NCCc1c[nH]cn1)C(=O)N[C@H](Cc1ccccc1)C(=O)N[C@H](C(=O)N[C@H](C(=O)N[C@@H](CC(C)C)C(=O)N[C@@H](CC(=O)O)C(=O)N[C@H]1CC(=O)NCCCC[C@@H](C(=O)N[C@@H](CC(=O)O)C(=O)N[C@@H](Cc2ccccc2)C(=O)N[C@H](C(=O)N[C@@H](CC(N)=O)C(=O)N[C@@H](Cc2c[nH]c3ccccc23)C(=O)N[C@@H](CC(C)C)C(=O)N[C@H](C(=O)N[C@@H](CCC(N)=O)C(=O)N[C@H](C(=O)N[C@@H](CCCCN)C(=O)N[C@H](C(=O)N[C@H](C(=O)N[C@@H](Cc2ccccc2)C(N)=O)[C@@H](C)O)[C@@H](C)CC)[C@@H](C)O)[C@@H](C)CC)[C@@H](C)CC)NC(=O)[C@H](C)NC(=O)[C@H](C)NC(=O)[C@H](CCCCN)NC1=O)[C@@H](C)CC)[C@@H](C)O [Example 95] ({Malonyl(2,2-Me2,histaminyl)}-[Ala(1H-tetrazol-5-yl)]GSFSDE[Nle][dF]TILDDKAAKDFINWLIQTKITF-NH2; lactam 14-18; C-terminus assumed) | – | 97 | 3.98 | 102 | 7.94 | 94.7 | 5.01 | 102 | 7.94
